In ChEMBL document CHEMBL4627399, “Synthesis and Structure-Activity Relationships of 5'-Aryl-14-alkoxypyridomorphinans: Identification of a μ Opioid Receptor Agonist/δ Opioid Receptor Antagonist Ligand with Systemic Antinociceptive Activity and Diminished Opioid Side Effects” (J Med Chem, 2020):
Active and inactive are the calls of the source. The rule behind the calls is not given here.

Key:
[1] = Stability in human liver microsomes at 1 uM measured up to 60 mins by LC-MS/MS analysis; type: ADME, Microsome; details: 1 h
Mu-type opioid receptor [2] = molecular target: T1, Mu-type opioid receptor (Homo sapiens, UniProt P35372); test: biochemical; type: cell-based, CHO
Mu-type opioid receptor [3] = molecular target: T1, Mu-type opioid receptor; test: biochemical
[4] = molecular target: T2, Kappa-type opioid receptor (Homo sapiens, UniProt P41145); test: Displacement of [3H]-diprenorphine from human kappa opioid receptor expressed in CHO cell membranes incubated for 1 hr by competition radioligand binding assay
[5] = molecular target: T2, Kappa-type opioid receptor; test: Agonist activity at human kappa opioid receptor expressed in CHO cell membranes incubated for 1 hr by [35S]GTPgammaS binding assay; type: functional
[6] = molecular target: T3, Delta-type opioid receptor (Homo sapiens, UniProt P41143); test: Antagonist activity at human delta opioid receptor expressed in CHO cell membranes assessed as reduction in SNC80-induced [35S]GTPgammaS binding preincubated for 5 mins followed by SNC80 addition and measured after 1 hr; type: functional
[7] = molecular target: T3, Delta-type opioid receptor; test: Displacement of [3H]-diprenorphine from human delta opioid receptor expressed in CHO cell membranes incubated for 1 hr by competition radioligand binding assay
[8] = molecular target: T2, Kappa-type opioid receptor; test: Agonist activity at human kappa opioid receptor expressed in CHO cell membranes assessed as stimulation of [35S]GTPgammaS binding incubated for 1 hr relative to […]; type: functional

Cc1cc(-c2cnc3c(c2)C[C@@]2(OCCCc4ccccc4)[C@H]4Cc5ccc(O)c6c5[C@@]2(CCN4CC2CC2)[C@H]3O6)ccn1
Stability [1]: Stable
Ki (Mu-type opioid receptor [2]): 1.05 nM
EC50 (Mu-type opioid receptor [3]): 1.88 nM
Ki [4]: < 0.51 nM
EC50 ([5]; cho): Not Active
IC50 [6]: 0.39 nM
Ki [7]: 63.5 nM
Emax [8]: inactive

CN(C)c1cccc(-c2cnc3c(c2)C[C@@]2(OCCCc4ccccc4)[C@H]4Cc5ccc(O)c6c5[C@@]2(CCN4CC2CC2)[C@H]3O6)c1
Stability [1]: Stable
Ki (Mu-type opioid receptor [2]): 15.8 nM
EC50 (Mu-type opioid receptor [3]): 1.5 nM
Ki [4]: 11.9 nM
EC50 ([5]; cho): Not Active
IC50 [6]: 3.76 nM
Ki [7]: 68.9 nM
Emax [8]: inactive

Oc1ccc2c3c1O[C@H]1c4ncc(-c5ccc(F)cc5)cc4C[C@@]4(OCCCc5ccccc5)[C@@H](C2)N(CC2CC2)CC[C@]314
Stability [1]: Stable
Ki (Mu-type opioid receptor [2]): 2.33 nM
EC50 (Mu-type opioid receptor [3]): 117 nM
Ki [4]: 6.69 nM
EC50 ([5]; read-out: EC50): 56.6 nM
IC50 [6]: 34.5 nM
Ki [7]: 3.42 nM

Oc1ccc2c3c1O[C@H]1c4ncc(-c5cnccn5)cc4C[C@@]4(OCCCc5ccccc5)[C@@H](C2)N(CC2CC2)CC[C@]314
Stability [1]: Stable
Ki (Mu-type opioid receptor [2]): 88.7 nM
EC50 (Mu-type opioid receptor [3]): > 3330 nM
Ki [4]: 19.8 nM
EC50 ([5]; cho): Not Active
IC50 [6]: 1.27 nM
Ki [7]: 40.1 nM
Emax [8]: inactive

Oc1ccc2c3c1O[C@H]1c4ncc(-c5ccccc5)cc4C[C@@]4(OCCCC5CCOCC5)[C@@H](C2)N(CC2CC2)CC[C@]314
Stability [1]: Stable
Ki [4]: 24.8 nM
IC50 [6]: < 0.17 nM
Ki [7]: 64.5 nM

Oc1ccc2c3c1O[C@H]1c4ncc(-c5cncnc5)cc4C[C@@]4(OCCCc5ccccc5)[C@@H](C2)N(CC2CC2)CC[C@]314
Stability [1]: Stable
Ki (Mu-type opioid receptor [2]): 47.9 nM
EC50 (Mu-type opioid receptor [3]): > 3330 nM
Ki [4]: 24.8 nM
EC50 ([5]; cho): Not Active
IC50 [6]: 0.87 nM
Ki [7]: 5.18 nM
Emax [8]: inactive

Oc1ccc2c3c1O[C@H]1c4ncc(-c5ccc(F)c(F)c5)cc4C[C@@]4(OCCCc5ccccc5)[C@@H](C2)N(CC2CC2)CC[C@]314
Stability [1]: Stable
Ki (Mu-type opioid receptor [2]): 370 nM
Ki [4]: 71.2 nM
Ki [7]: 7.52 nM

COc1ccc(-c2cnc3c(c2)C[C@@]2(OCCCc4ccccc4)[C@H]4Cc5ccc(O)c6c5[C@@]2(CCN4CC2CC2)[C@H]3O6)cc1
Stability [1]: Stable
Ki [4]: 140 nM
EC50 ([5]; read-out: EC50): 2.02 nM
IC50 [6]: 22 nM
Ki [7]: 30.6 nM

Oc1ccc2c3c1O[C@H]1c4ncc(-c5ccccc5)cc4C[C@@]4(OCCCc5ccc(F)cc5)[C@@H](C2)N(CC2CC2)CC[C@]314
Stability [1]: Stable
Ki [4]: 60.2 nM
EC50 ([5]; cho): Not Active
IC50 [6]: 63.8 nM
Ki [7]: 11 nM
Emax [8]: inactive

Oc1ccc2c3c1O[C@H]1c4ncc(-c5ccc(F)cc5F)cc4C[C@@]4(OCCCc5ccccc5)[C@@H](C2)N(CC2CC2)CC[C@]314
Stability [1]: Stable
Ki (Mu-type opioid receptor [2]): 171 nM
EC50 (Mu-type opioid receptor [3]): 130 nM
Ki [4]: 35.9 nM
IC50 [6]: 3.2 nM
Ki [7]: 53.7 nM

CC(=O)Nc1ccc(-c2cnc3c(c2)C[C@@]2(OCCCc4ccccc4)[C@H]4Cc5ccc(O)c6c5[C@@]2(CCN4CC2CC2)[C@H]3O6)cc1
Stability [1]: Stable
Ki (Mu-type opioid receptor [2]): 159 nM
Ki [4]: 15.1 nM
Ki [7]: 394 nM

Oc1ccc2c3c1O[C@H]1c4ncc(-c5ccccc5C5CC5)cc4C[C@@]4(OCCCc5ccccc5)[C@@H](C2)N(CC2CC2)CC[C@]314
Stability [1]: Stable
Ki (Mu-type opioid receptor [2]): 135 nM
EC50 (Mu-type opioid receptor [3]): 141 nM
Ki [4]: 175 nM
IC50 [6]: 2.48 nM
Ki [7]: 64.1 nM

Oc1ccc2c3c1O[C@H]1c4ncc(-c5ccccc5)cc4C[C@@]4(OCCCC5CCCCC5)[C@@H](C2)N(CC2CC2)CC[C@]314
Stability [1]: Stable
Ki (Mu-type opioid receptor [2]): 95.3 nM
EC50 (Mu-type opioid receptor [3]): 23.6 nM
Ki [4]: 57.9 nM
EC50 ([5]; read-out: EC50): 34.5 nM
IC50 [6]: 28.7 nM
Ki [7]: 12.9 nM

Oc1ccc2c3c1O[C@H]1c4ncc(-c5ccccn5)cc4C[C@@]4(OCCCc5ccccc5)[C@@H](C2)N(CC2CC2)CC[C@]314
Stability [1]: Stable
Ki (Mu-type opioid receptor [2]): 105 nM
EC50 (Mu-type opioid receptor [3]): 526 nM
Ki [4]: 19.2 nM
IC50 [6]: 0.51 nM
Ki [7]: 6.52 nM

Cc1nocc1-c1cnc2c(c1)C[C@@]1(OCCCc3ccccc3)[C@H]3Cc4ccc(O)c5c4[C@@]1(CCN3CC1CC1)[C@H]2O5
Stability [1]: Stable
Ki (Mu-type opioid receptor [2]): 99.3 nM
EC50 (Mu-type opioid receptor [3]): 3.46 nM
Ki [4]: 23.1 nM
IC50 [6]: 0.68 nM
Ki [7]: 64.5 nM

Oc1cccc(-c2cnc3c(c2)C[C@@]2(OCCCc4ccccc4)[C@H]4Cc5ccc(O)c6c5[C@@]2(CCN4CC2CC2)[C@H]3O6)c1
Stability [1]: Stable
Ki (Mu-type opioid receptor [2]): 12.9 nM
EC50 (Mu-type opioid receptor [3]): 1.12 nM
Ki [4]: 18.1 nM
IC50 [6]: 1.28 nM
Ki [7]: 8.37 nM

Oc1ccc2c3c1O[C@H]1c4ncc(-c5ccc(Cl)cc5)cc4C[C@@]4(OCCCc5ccccc5)[C@@H](C2)N(CC2CC2)CC[C@]314
Stability [1]: Stable

Cc1cccc(C)c1-c1cnc2c(c1)C[C@@]1(OCCCc3ccccc3)[C@H]3Cc4ccc(O)c5c4[C@@]1(CCN3CC1CC1)[C@H]2O5
Stability [1]: Stable
Ki (Mu-type opioid receptor [2]): 249 nM
EC50 (Mu-type opioid receptor [3]): 3.4 nM
Ki [4]: 134 nM
IC50 [6]: 51.6 nM
Ki [7]: 93.4 nM

Cc1ccc(-c2cnc3c(c2)C[C@@]2(OCCCc4ccccc4)[C@H]4Cc5ccc(O)c6c5[C@@]2(CCN4CC2CC2)[C@H]3O6)cc1
Stability [1]: Stable
Ki (Mu-type opioid receptor [2]): 191 nM
EC50 (Mu-type opioid receptor [3]): 2.31 nM
Ki [4]: 102 nM
IC50 [6]: 3.63 nM
Ki [7]: 34.4 nM

Cc1ccccc1-c1cnc2c(c1)C[C@@]1(OCCCc3ccccc3)[C@H]3Cc4ccc(O)c5c4[C@@]1(CCN3CC1CC1)[C@H]2O5
Stability [1]: Stable
Ki (Mu-type opioid receptor [2]): 235 nM
EC50 (Mu-type opioid receptor [3]): 5.53 nM
Ki [4]: 152 nM
IC50 [6]: 14.3 nM
Ki [7]: 97.2 nM

Oc1ccc2c3c1O[C@H]1c4ncc(-c5ccccc5)cc4C[C@@]4(OCCCc5ccccc5)[C@@H](C2)N(CC2CC2)CC[C@]314
Stability [1]: Stable
Ki (Mu-type opioid receptor [2]): 23.1 nM
EC50 (Mu-type opioid receptor [3]): 1.27 nM
Ki [4]: 132 nM
EC50 ([5]; read-out: EC50): > 3330 nM
IC50 [6]: 0.93 nM
Ki [7]: 19.3 nM

Oc1ccc2c3c1O[C@H]1c4ncc(-c5ccc(Br)cc5)cc4C[C@@]4(OCCCc5ccccc5)[C@@H](C2)N(CC2CC2)CC[C@]314
Stability [1]: Stable
Ki [4]: 75.9 nM
EC50 ([5]; read-out: EC50): 5.52 nM
IC50 [6]: < 0.51 nM
Ki [7]: 20.9 nM

CC(=O)Nc1cccc(-c2cnc3c(c2)C[C@@]2(OCCCc4ccccc4)[C@H]4Cc5ccc(O)c6c5[C@@]2(CCN4CC2CC2)[C@H]3O6)c1
Stability [1]: Stable
Ki (Mu-type opioid receptor [2]): 337 nM
Ki [4]: 608 nM
Ki [7]: > 3330 nM

Cc1cc(F)ccc1-c1cnc2c(c1)C[C@@]1(OCCCc3ccccc3)[C@H]3Cc4ccc(O)c5c4[C@@]1(CCN3CC1CC1)[C@H]2O5
Stability [1]: Stable
Ki [4]: 129 nM
EC50 ([5]; cho): Not Active
IC50 [6]: 28.2 nM
Ki [7]: 3.78 nM
Emax [8]: inactive

Oc1ccc2c3c1O[C@H]1c4ncc(-c5ccccc5)cc4C[C@@]4(OCCCCc5ccccc5)[C@@H](C2)N(CC2CC2)CC[C@]314
Stability [1]: Stable
Ki (Mu-type opioid receptor [2]): 92.1 nM
EC50 (Mu-type opioid receptor [3]): 24.8 nM
Ki [4]: 57.1 nM
IC50 [6]: 66.6 nM
Ki [7]: 14.6 nM
